Measurements: patent US20170119760A1 (AB SCIENCE, priority 2015, published 2017)

Experiments:
C57BL/6 mice = assay: Mortality after MPTP intoxication; type: in vivo; conditions: 24 hours after treatment by the MPTP
Description: Brain samples were collected after mice anesthesia and sacrifice.

monoamine oxidase = assay: MPTP mouse model: monoamine oxidase fluorometric assay of total brain protein extract; conditions: for Monoamine oxidase fluorometric assay: total brain protein extract, control = 100
[1] = tested on: tyrosine hydroxylase expression; assay: MPTP mouse model: tyrosine hydroxylase ELISA assay of total brain protein extract; conditions: for Mean expression of tyrosine hydroxylase: ELISA, control 0.275
[2] = tested on: human cord blood mast cells; conditions: cited from earlier work
[3] = tested on: tyrosine hydroxylase expression; assay: MPTP mouse model: tyrosine hydroxylase immunohistochemistry on coronal brain sections; type: in vivo, C57BL/6 mice; conditions: MPTP + masitinib 2×5 mg/kg; 5 μm-thick coronal sections

Row | activity of monoamine oxidase with respect to the control group (monoamine oxidase; MPTP in combination with masitinib) | basal expression of tyrosine hydroxylase compared with control ([1]; masitinib alone, no MPTP) | Compound | mortality (C57BL/6 mice) | Monoamine oxidase fluorometric assay (monoamine oxidase; MPTP alone) | Mean expression of tyrosine hydroxylase ([1]; MPTP alone (4 × 20 mg/kg), solvent treated) | FccRI-mediated degranulation of human cord blood mast cells [2] | Monoamine oxidase fluorometric assay (monoamine oxidase; MPTP + masitinib 2 × 5 mg/kg) | decrease of tyrosine hydroxylase expression in response to MPTP treatment ([1]; MPTP + masitinib 2×5 mg/kg cohort) | Mean expression of tyrosine hydroxylase ([1]; MPTP + masitinib 2 × 5 mg/kg per os, day -7 to day 7) | Mean expression of tyrosine hydroxylase ([1]; masitinib alone 2 × 30 mg/kg per os, no MPTP) | attenuation of tyrosine hydroxylase destruction by immunohistochemistry [3]
1 |  |  | CN1CC=C(c2ccccc2)CC1 [MPTP, 1-methyl-4-phenyl-1,2,3,6-tetrahydropyridine, reference compound] | No mortality | 108 | 0.175 |  |  |  |  |  | 
2 | maintained | did not modify significantly | Cc1ccc(NC(=O)c2ccc(CN3CCN(C)CC3)cc2)cc1Nc1nc(-c2cccnc2)cs1 [Masitinib, 4-(4-methylpiperazin-1-ylmethyl)-N-[4-methyl-3-(4-pyridin-3ylthiazol-2-ylamino)phenyl]benzamide] |  |  |  | inhibition | 115 | significantly diminished decrease | 0.215 | 0.225 | reproducible
